According to ChEMBL document CHEMBL1149540, “Synthesis and in vitro protozoocidal activity of diazabicyclic benzotropolone derivatives” (Bioorg Med Chem Lett, 2007):
Converted amounts (≈) assume the structure as drawn.

Columns and labels:
Leishmania donovani = test: Inhibition of Leishmania donovani; type: functional, organism-based
[1] = Cytotoxicity against KB cells; type: cell-based; conditions: human, read-out: ED50 (the source's name)
Trypanosoma cruzi = test: Inhibition of Trypanosoma cruzi; type: functional, organism-based
[2] = Therapeutic index, ratio of IC50 for Leishmania donovani to ED50 for KB cells; type: cell-based; conditions: human, read-out: TI
[3] = Therapeutic index, ratio of IC50 for Trypanosoma cruzi to ED50 for KB cells; type: cell-based; conditions: human, read-out: TI

Row | Compound | IC50 (Leishmania donovani) [µM] | CC50 [1] [µg/mL] | IC50 (Trypanosoma cruzi) [µM] | selectivity ratio [2] | selectivity ratio [3]
1 | COC(=O)N1[C@@H]2C=C[C@@](OC)(C(=O)c3c2cc(OC)c(OC)c3OC)N1C(=O)OC | > 71 | > 300 | > 71 | – | –
2 | CCOc1c(OC)c(OC)cc2c1C(=O)[C@]1(OC)C=C[C@H]2N(C(=O)OC)N1C(=O)OC | > 68.8 | > 300 | > 68.8 | – | –
3 | COc1cc2c(c(OCc3ccc(F)cc3)c1OC)C(=O)[C@]1(OC)C=C[C@H]2N(C(=O)OC(C)C)N1C(=O)OC(C)C | > 52.4 | > 300 | 18 | – | –
4 | COC(=O)N1[C@@H]2C=C[C@@](OC)(C(=O)c3c2cc(OC)c(OC)c3OCc2ccccc2)N1C(=O)OC | > 60.2 | > 300 | > 60.2 | – | –
5 | CCOC(=O)N1[C@@H]2C=C[C@@](OC)(C(=O)c3c2cc(OC)c(OC)c3OCC)N1C(=O)OCC | > 64.6 | > 300 | > 64.6 | – | –
6 | COC(=O)N1[C@@H]2C=C[C@@](OC)(C(=O)c3c2cc(OC)c(OC)c3OCc2ccc(F)cc2)N1C(=O)OC | > 58.1 | 56.6 (≈ 110 µM) | > 58.1 | – | –
7 | COC(=O)N1[C@@H]2C=C[C@@](OC)(C(=O)c3c2cc(OC)c(OC)c3OCc2ccccc2F)N1C(=O)OC | > 58.1 | 137 (≈ 266 µM) | > 58.1 | – | –
8 | CCCOc1c(OC)c(OC)cc2c1C(=O)[C@]1(OC)C=C[C@H]2N(C(=O)OCC)N1C(=O)OCC | > 62.7 | > 300 | > 62.7 | – | –
9 | CCOC(=O)N1[C@@H]2C=C[C@@](OC)(C(=O)c3c2cc(OC)c(OC)c3OCc2ccccc2)N1C(=O)OCC | > 57 | 215 (≈ 409 µM) | 54.1 | – | –
10 | CCOC(=O)N1[C@@H]2C=C[C@@](OC)(C(=O)c3c2cc(OC)c(OC)c3OCc2ccc(F)cc2)N1C(=O)OCC | > 55.1 | 51.8 (≈ 95.1 µM) | 51.3 | – | –
11 | CCOC(=O)N1[C@@H]2C=C[C@@](OC)(C(=O)c3c2cc(OC)c(OC)c3OCc2ccc(Cl)cc2)N1C(=O)OCC | > 53.5 | 99.9 (≈ 178 µM) | 83.8 | – | –
12 | CCOC(=O)N1[C@@H]2C=C[C@@](OC)(C(=O)c3c2cc(OC)c(OC)c3OCc2ccc(OC)cc2)N1C(=O)OCC | 9.9 | 63.1 (≈ 113 µM) | > 53.9 | – | –
13 | COc1cc2c(c(OC)c1OC)C(=O)[C@]1(OC)C=C[C@H]2N(C(=O)OC(C)C)N1C(=O)OC(C)C | > 62.7 | > 300 | > 62.7 | – | –
14 | CCOc1c(OC)c(OC)cc2c1C(=O)[C@]1(OC)C=C[C@H]2N(C(=O)OC(C)C)N1C(=O)OC(C)C | > 60.9 | > 300 | > 60.9 | – | –
15 | COc1cc2c(c(OCc3ccccc3)c1OC)C(=O)[C@]1(OC)C=C[C@H]2N(C(=O)OC(C)C)N1C(=O)OC(C)C | > 54.1 | 94 (≈ 169 µM) | 12.1 | – | –
16 | CCOC(=O)N1[C@@H]2C=C[C@@](OC)(C(=O)c3c2cc(OC)c(OC)c3OCc2ccccc2F)N1C(=O)OCC | 8.6 | 99.7 (≈ 183 µM) | 54.1 | 21.3 | –
17 | COC(=O)N1[C@@H]2C=C[C@@](OC)(C(=O)c3c2cc(OC)c(OC)c3OCc2ccc(OC)cc2)N1C(=O)OC | > 56.8 | > 300 | > 56.8 | – | –
18 | COc1cc2c(c(OCc3ccccc3F)c1OC)C(=O)[C@]1(OC)C=C[C@H]2N(C(=O)OC(C)C)N1C(=O)OC(C)C | > 52.4 | 109 (≈ 190 µM) | 9.5 | – | –
19 | COc1cc2c(c(OCc3ccc(Cl)cc3)c1OC)C(=O)[C@]1(OC)C=C[C@H]2N(C(=O)OC(C)C)N1C(=O)OC(C)C | 47.4 | 42 (≈ 71.3 µM) | < 1.9 | – | 37.6
20 | COc1ccc(COc2c(OC)c(OC)cc3c2C(=O)[C@]2(OC)C=C[C@H]3N(C(=O)OC(C)C)N2C(=O)OC(C)C)cc1 | > 51.3 | 47.9 (≈ 81.9 µM) | 9.8 | – | –
21 | COC(=O)N1[C@@H]2C=C[C@@](OC)(C(=O)c3c2cc(OC)c(OC)c3O)N1C(=O)OC | > 73.5 | > 300 | > 73.5 | – | –
22 | CCCOc1c(OC)c(OC)cc2c1C(=O)[C@]1(OC)C=C[C@H]2N(C(=O)OC)N1C(=O)OC | > 66.6 | > 300 | > 66.6 | – | –
23 | COC(=O)N1[C@@H]2C=C[C@@](OC)(C(=O)c3c2cc(OC)c(OC)c3OCc2ccc(Cl)cc2)N1C(=O)OC | > 56.3 | 55.9 (≈ 105 µM) | 50.9 | – | –
24 | CCCOc1c(OC)c(OC)cc2c1C(=O)[C@]1(OC)C=C[C@H]2N(C(=O)OC(C)C)N1C(=O)OC(C)C | > 59.2 | 299 (≈ 590 µM) | 42.3 | – | –
25 | CCCCOc1c(OC)c(OC)cc2c1C(=O)[C@]1(OC)C=C[C@H]2N(C(=O)OC(C)C)N1C(=O)OC(C)C | > 57.6 | 22.1 (≈ 42.5 µM) | 23.4 | – | –
26 | CCCCOc1c(OC)c(OC)cc2c1C(=O)[C@]1(OC)C=C[C@H]2N(C(=O)OC)N1C(=O)OC | > 64.6 | > 300 | 57.4 | – | –
27 | COc1cc2c(c(O)c1OC)C(=O)[C@]1(OC)C=C[C@H]2N(C(=O)OC(C)C)N1C(=O)OC(C)C | > 64.6 | > 300 | > 64.6 | – | –
28 | CCCCOc1c(OC)c(OC)cc2c1C(=O)[C@]1(OC)C=C[C@H]2N(C(=O)OCC)N1C(=O)OCC | > 60.9 | 76 (≈ 154 µM) | > 60.9 | – | –
29 | O=C(Cn1ccnc1[N+](=O)[O-])NCc1ccccc1 [BENZNIDAZOLE] | – | – | 8.7 | – | –
